The numbers were not newly measured in paper PMC10891214, “Effects of food and ethnicity on the pharmacokinetics of venadaparib, a next-generation PARP inhibitor, in healthy Korean, Caucasian, and Chinese male subjects” (Investigational New Drugs, 2023), which cites them from elsewhere.

Molecules are shown by their SMILES.

This data set relates to patient-derived xenograft. The arrangement: method as in PMID 36808277. The note with it: patient-derived xenograft mouse model; cited from earlier work. For orientation: A xenograft is tissue or cells of one species grown in another, often human tumour cells in immunodeficient mice.

For `O=C(c1cc(Cc2n[nH]c(=O)c3ccccc23)ccc1F)N1CCN(C(=O)C2CC2)CC1` [olaparib, reference compound], the “Tumor growth inhibition rate” value is 118.2%.
